Test results reported in US20150133373A1, “TRANSMUCOSAL DELIVERY OF ENGINEERED POLYPEPTIDES” (priority 2012, published 2015).
Like-named read-outs stand apart in the source and are kept apart here. No end group written: not given here. *: point of attachment. maleimido‑mono‑amide‑DOTA = O=C(O)CN1CCN(CC(=O)O)CCN(CC(=O)NCCN2C(=O)CC(*)C2=O)CCN(CC(=O)O)CC1

Legend:
[1] = Stability in a pancreatin enzyme mixture; format: in vitro ADME; details: isolated enzyme pancreatin
[2] = system: CD3+CD4+ T cells (PBMC from 52 human Caucasian individuals)
[3] = system: IgG molecules present in normal human sera; test: Serum response analysis (ELISA, IgG binding to albumin binding polypeptides)
Protocol: Each serum sample was tested as a singlet.

Pancreatin = test: Stability in a pancreatin enzyme mixture; format: in vitro ADME; details: pH 6.8
NIH/Swiss mice = test: OGTT DOA (oral glucose tolerance test for duration of action) in NIH/Swiss mice; format: in vivo, mouse; details: for activity in OGTT DOA when dosed 24 hours before the glucose gavage (in words): dosed at t-24 hours; for % Glucose Lowering Compared to Vehicle: Table 6, 25 nmol/kg IP at t=−1 day, blood glucose at 30 min after glucose gavage ([…]), 4 hr fasted NIH/Swiss female mice
[4] = Melting temperature (Tm) by circular dichroism; format: physicochemical; details: CD at 221 nm, 20° to 90° C., 1×PBS, 0.4-0.5 mg/ml
Protocol: Purified albumin binding polypeptide variants were diluted in 1×PBS, to final concentrations between 0.4 and 0.5 mg/ml. Circular dichroism (CD) analysis was performed on a Jasco J-810 spectropolarimeter in a cell with an optical path-length of 1 mm. In the variable temperature measurements, the […] was measured at 221 nm from 20° to 90° C., with a temperature slope of 5° C./min.
The melting temperatures (Tm) of the different albumin binding polypeptide variants were calculated by determining the midpoint of the transition in the CD vs. temperature plot.

C57BL6 female mice = test: Kidney vacuolization (cytoplasmic vacuolation of renal cortical tubular epithelial cells); format: in vivo, mouse; details: Example 32; sc injection on days 0-6, kidneys on day 7
Protocol: With some drugs, such as some pegylated proteins, undesirable vacuoles can form in cytoplasm of epithelial cells lining the proximal convoluted tubules, which is an undesirable toxicity measure. […] C57BL6 female mice (n=2 cages, 3 mice/cage) were weighed daily 3 hours prior to lights out Immediately after weighing, on days 0-6 mice were injected subcutaneously with test compound. Mice were sacrificed on day 7 and kidneys submitted for histopathology. […] A positive control compound known to cause vacuole formation was scored as 3. The ABD polypeptide itself scored 0.
With some drugs, such as some pegylated proteins, undesirable vacuoles can form in cytoplasm of epithelial cells lining the proximal convoluted tubules, which is an undesirable toxicity measure. […] C57BL6 female mice (n=2 cages, 3 mice/cage) were weighed daily 3 hours prior to lights out Immediately after weighing, on days 0-6 mice were injected subcutaneously with test compound. Mice were sacrificed on day 7 and kidneys submitted for histopathology. […] A positive control compound known to cause vacuole formation was scored as 3.

GLP-1 receptor = target: T1, GLP-1 receptor (Rattus norvegicus, UniProt P32301); test: GLP-1 receptor functional activity (cAMP induction, HTRF cell-based assay, 6-23 (clone 6) cells)
T1 construct: cells that endogenously express GLP-1R; host or cells: rat thyroid carcinoma 6-23 (clone 6) cells
T1 sequence (P32301 22-463): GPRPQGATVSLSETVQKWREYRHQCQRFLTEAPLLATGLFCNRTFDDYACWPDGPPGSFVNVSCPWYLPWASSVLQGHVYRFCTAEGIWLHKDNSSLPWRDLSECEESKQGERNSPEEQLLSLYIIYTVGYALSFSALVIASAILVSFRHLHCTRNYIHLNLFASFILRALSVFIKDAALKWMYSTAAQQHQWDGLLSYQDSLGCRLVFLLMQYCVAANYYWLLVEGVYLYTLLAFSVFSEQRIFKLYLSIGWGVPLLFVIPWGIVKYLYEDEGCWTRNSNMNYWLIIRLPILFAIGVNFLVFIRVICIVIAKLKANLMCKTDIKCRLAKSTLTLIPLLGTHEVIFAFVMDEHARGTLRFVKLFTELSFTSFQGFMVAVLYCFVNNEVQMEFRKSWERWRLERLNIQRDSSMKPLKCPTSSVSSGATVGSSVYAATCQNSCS

CC[C@H](C)[C@H](NC(=O)[C@H](Cc1ccccc1)NC(=O)[C@H](CCC(=O)O)NC(=O)[C@H](CCCCN)NC(=O)[C@H](C)NC(=O)[C@H](C)NC(=O)[C@H](CCC(N)=O)NC(=O)CNC(=O)[C@H](CCC(=O)O)NC(=O)[C@H](CC(C)C)NC(=O)[C@H](Cc1ccc(O)cc1)NC(=O)[C@H](CO)NC(=O)[C@H](CO)NC(=O)[C@@H](NC(=O)[C@H](CC(=O)O)NC(=O)[C@H](CO)NC(=O)[C@@H](NC(=O)[C@H](Cc1ccccc1)NC(=O)[C@@H](NC(=O)CNC(=O)[C@H](CCC(=O)O)NC(=O)[C@H](C)NC(=O)[C@@H](N)Cc1c[nH]cn1)[C@@H](C)O)[C@@H](C)O)C(C)C)C(=O)N[C@@H](C)C(=O)N[C@@H](Cc1c[nH]c2ccccc12)C(=O)N[C@@H](CC(C)C)C(=O)N[C@H](C(=O)N[C@@H](CCCCN)C(=O)NCC(=O)N[C@@H](CCCNC(=N)N)C(N)=O)C(C)C [GLP-1 (7-36) (Human)]
remaining at 0.5 h, 30 micromolar ([1]; pancreatin enzyme mixture, 50 mM phosphate buffer pH 6.8, 37° C., 30 minutes, read-out: Percent Remaining at 30 minutes): 39% | remaining at 1 h, 30 micromolar ([1]; pancreatin enzyme mixture, 50 mM phosphate buffer pH 6.8, 37° C., 60 minutes, read-out: Percent Remaining at 60 minutes): 24%

CC[C@H](C)[C@H](NC(=O)[C@H](C)NC(=O)[C@H](CC(=O)O)NC(=O)[C@H](CCCCN)NC(=O)[C@H](CC(C)C)NC(=O)[C@H](C)NC(=O)[C@H](CCC(=O)O)NC(=O)[C@@H](NC(=O)CNC(=O)[C@H](CCC(=O)O)NC(=O)[C@@H](NC(=O)[C@@H](NC(=O)[C@H](CCCCN)NC(=O)[C@H](C)NC(=O)[C@H](CCCCN)NC(=O)[C@H](CC(=O)O)NC(=O)[C@@H](NC(=O)[C@H](CC(C)C)NC(=O)[C@H](CCCNC(=N)N)NC(=O)[C@H](CCCCN)NC(=O)[C@H](Cc1ccc(O)cc1)NC(=O)[C@H](Cc1ccccc1)NC(=O)[C@H](CC(=O)O)NC(=O)[C@H](CO)NC(=O)[C@@H](NC(=O)CNC(=O)[C@H](Cc1ccc(O)cc1)NC(=O)[C@H](CSC1CC(=O)N(CCNC(=O)CN2CCN(CC(=O)O)CCN(CC(=O)O)CCN(CC(=O)O)CC2)C1=O)NC(=O)[C@H](CC(=O)O)NC(=O)[C@H](CC(C)C)NC(=O)[C@H](CCC(=O)O)NC(=O)[C@H](C)NC(=O)[C@H](CC(N)=O)NC(=O)[C@H](C)NC(=O)[C@H](C)NC(=O)[C@H](CCC(=O)O)NC(=O)[C@H](CCCCN)NC(=O)[C@H](C)NC(=O)[C@H](CO)NC(=O)[C@H](C)NC(=O)[C@H](CC(C)C)NC(=O)CN)C(C)C)[C@@H](C)CC)[C@@H](C)O)C(C)C)C(C)C)C(=O)N[C@@H](CC(C)C)C(=O)N[C@@H](C)C(=O)N[C@@H](C)C(=O)N[C@@H](CC(C)C)C(=O)N1CCC[C@H]1C(=O)O (stereo partly drawn) [PEP07968]
immunogenicity classification (in words) [2]: non-immunogenic | number of responding individuals as compared to buffer only [2]: 1 | reactivity with IgG of human sera (in words) [3]: least reactivity

CCCCCCCCCCCCCCCC(=O)N[C@@H](CCC(=O)NCCCC[C@H](NC(=O)[C@H](C)NC(=O)[C@H](C)NC(=O)[C@H](CCC(N)=O)NC(=O)CNC(=O)[C@H](CCC(=O)O)NC(=O)[C@H](CC(C)C)NC(=O)[C@H](Cc1ccc(O)cc1)NC(=O)[C@H](CO)NC(=O)[C@H](CO)NC(=O)[C@@H](NC(=O)[C@H](CC(=O)O)NC(=O)[C@H](CO)NC(=O)[C@@H](NC(=O)[C@H](Cc1ccccc1)NC(=O)[C@@H](NC(=O)CNC(=O)[C@H](CCC(=O)O)NC(=O)[C@H](C)NC(=O)[C@@H](N)Cc1cnc[nH]1)[C@@H](C)O)[C@@H](C)O)C(C)C)C(=O)N[C@@H](CCC(=O)O)C(=O)N[C@@H](Cc1ccccc1)C(=O)N[C@H](C(=O)N[C@@H](C)C(=O)N[C@@H](Cc1c[nH]c2ccccc12)C(=O)N[C@@H](CC(C)C)C(=O)N[C@H](C(=O)N[C@@H](CCCNC(=N)N)C(=O)NCC(=O)N[C@@H](CCCNC(=N)N)C(=O)NCC(=O)O)C(C)C)[C@@H](C)CC)C(=O)O [liraglutide, [N-epsilon-(gamma-Glu(N-alpha-hexadecanoyl))-Lys26,Arg34]-GLP-1-(7-37)-acid]
remaining at 0.5 h, 30 micromolar ([1]; pH 6.8): 100% | remaining at 1 h, 30 micromolar ([1]; pH 6.8): 100% | susceptibility to pancreatic enzymes (in words) (Pancreatin): relatively resistant to pancreatic enzymes

GSLAEAKEAANAELDSYGVSDFYKRLIDKAKTVEGVEALKDAILAALP [PEP07986]
activity in OGTT DOA when dosed 24 hours before the glucose gavage (in words) (NIH/Swiss mice): inactive

GSSLASAKEAANAELDSYGVSDFYKRLIDKAKTVEGVEALKDAILAALP [PEP07554]
Tm [4]: 58 °C | reactivity with IgG of human sera (in words) [3]: least reactivity

HGEGTFTSDLSKQLEEEAVRLFIEWLKNGGPSSGAPPKSTGGGGSASGSLAEAKEAANAELDSYGVSDFYKRLIDKAKTVEGVEALKDAILAALP [Cmpd 2-6]
Percent glucose lowering compared to vehicle (NIH/Swiss mice; Table 17, 25 nmol/Kg, OGTT at 24 hours post drug administration, 30 minutes post gavage): −22%

HGEGTFTSDLSKQLEEEAVRLFIEWLKQGGPSKEIISGGSLAEAKVLANRELDKYGVSDFYKRLINKAKTVEGVEALKLHILAALP [Cmpd 33]
% Glucose Lowering Compared to Vehicle (NIH/Swiss mice): −19%

HGEGTFTSDLSKQLEEEAVRLFIEWLKQGGPSKEIISTGGGGSASGSLAEAKEAANAELDSYGVSDFYKRLIDKAKTVEGVEALKDAILAALP [Cmpd 2-5]
Severity score for cytoplasmic vacuolation of renal cortical tubular epithelial cells (C57BL6 female mice): 0

HGEGTFTSDLSKQLEEEAVRLFIEWLKQGGPSKEIISTGGGGSGGGSGGGSGGGSASLAEAKVLANRELDKYGVSDFYKRLINKAKTVEGVEALKLHILAALP [Cmpd 8]
% Glucose Lowering Compared to Vehicle (NIH/Swiss mice): −21%

HGEGTFTSDLSKQMEEEAVRLFIEWLKNGGSLAEAKVLANRELDKYGVSDFYKRLINKAKTVEGVEALKLHILAALP [Cmpd 32]
activity in OGTT DOA when dosed 24 hours before the glucose gavage (in words) (NIH/Swiss mice): no glucose lowering

HGEGTFTSDLSKQMEEEAVRLFIEWLKNTGGGGSASLAEAKVLANRELDKYGVSDFYKRLINKAKTVEGVEALKLHILAALP [Cmpd 10]
% Glucose Lowering Compared to Vehicle (NIH/Swiss mice): −22%

PEP07975: DOTA-conjugated PEP07834, SEQ ID NO:460, via Cys14 with maleimido-mono-amide-DOTA; amidated at the C-terminus (ALASAKEAANAELDC(maleimido‑mono‑amide‑DOTA)YGVSDFYKRLIDKAKTVEGVEALKDAILAALP-NH2)
Tm [4]: 50 °C

TT: tetanus toxoid (TT, Statens Serum Institut), positive control [reference compound]
number of responding individuals as compared to buffer only ([2]; 52 donors): 49

B1: HGEGTFTSDLSKQLEEEAVRLFIEWLKNTGGGGSASGSLAEAKEAANAELDSYGVSDFYKRLIDKAKTVEGVEALKDAILAALP (protein)
chain: HGEGTFTSDLSKQLEEEAVRLFIEWLKNTGGGGSASGSLAEAKEAANAELDSYGVSDFYKRLIDKAKTVEGVEALKDAILAALP
activity in OGTT DOA when dosed 24 hours before the glucose gavage (in words) (NIH/Swiss mice): did not display 24 h duration | in vitro GLP-1 receptor functional activity (in words) (GLP-1 receptor): active in vitro against the GLP-1 receptor
